How the values were obtained:
KRas^G12D = molecular target: T1, KRas^G12D (Homo sapiens, UniProt P01116, G12D); assay: KRas binding assay (TR-FRET displacement of Cy5 labelled tracer)
T1 construct: […]; biotin (biotinylated); purchased Accelegan Inc
Experimental: (§6) The ability of a compound to bind to KRas was measured using a TR-FRET displacement assay. […] After a 60-minute incubation at room temperature, the reaction was measured using a BMG LABTECH CLARIO star Plus via TR-FRET. […] The POC values were fit to a 4-parameter IC50 equation and the IC50 value reported.

KRas^G12R = molecular target: T2, KRas^G12R (Homo sapiens, UniProt P01116, G12R); assay: as above
T2 construct: […]; biotin (biotinylated); purchased Accelegan Inc
Experimental: as §6

KRas^G12V = molecular target: T3, KRas^G12V (Homo sapiens, UniProt P01116, G12V); assay: as above
T3 construct: […]; biotin (biotinylated); purchased Accelegan Inc
T3 sequence (P01116 1-169 isoform P01116-2 G12V): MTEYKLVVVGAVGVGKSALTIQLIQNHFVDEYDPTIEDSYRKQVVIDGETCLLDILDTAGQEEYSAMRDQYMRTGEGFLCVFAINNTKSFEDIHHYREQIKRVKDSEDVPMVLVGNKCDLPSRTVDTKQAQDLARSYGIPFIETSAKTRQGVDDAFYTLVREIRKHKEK
Experimental: as §6

[1] = test system: AsPC-1 (G12D) cells, phospho-ERK; assay: Inhibition of KRas-mediated phosphorylation of ERK (phospho-ERK/GAPDH antibody detection, LI-COR); format: cell-based; conditions: Homo sapiens, ASPC1, 3 hours
Experimental: (§1) AsPC-1 (G12D, ATCC CRL-1682), A549 (G12S, ATCC CCL-185), HCT116 (G13D, ATCC CCL-247) cells were grown in DMEM medium supplemented with 10% fetal bovine serum and Penicillin/Streptomycin. NCI-H358 (G12C, ATCC CRL-5807), NCI-H460 (Q61H, ATCC HTB-117), NCI-H727 (G12V, ATCC CRL-5815), MKN1 (WTdep, JCRB JCRB0252), PSN-1 (G12R, ATCC CRM-CRL-3211) cells were grown in RPMI medium supplemented with 10% fetal bovine serum, 10 mM HEPES, 10 mM Sodium Pyruvate, and Penicillin/Streptomycin. Cells were plated in black well clear bottom tissue culture treated 96 well plates (Corning, 3904) at a density of 20,000 cells/well and allowed to attach for 12-14 hours. Diluted compounds were then added in a final concentration of 0.5% DMSO. After 3 hours, 50 μL of 4.0% formaldehyde was added and the plates incubated at room temperature for 20 minutes. The plates were then dumped and permeabilized with 150 μL of ice cold 100% methanol for 10 minutes. Non-specific antibody binding to the plates was blocked using 100 μL Odyssey blocking buffer (LI-COR Biosciences, 927-60010) for 1 hour at room temperature.
(§2) The amount of phospho-ERK was determined using an antibody specific for the phosphorylated form of ERK and compared to the amount of GAPDH. Primary antibodies used for the detection were added as follows: Phospho-ERK (Cell Signaling CS-9101) diluted 1:500 and GAPDH (Millipore MAB374) diluted 1:5000 in Odyssey blocking buffer+0.05% Tween 20. The plates were incubated overnight at 4 C. The plates were washed 3× with 150 uL PBS+0.1% Tween 20.
(§3) Secondary antibodies used to visualize primary antibodies were added as follows: Goat Anti-Rabbit-800 (LI-COR, 926-32211) and Goat Anti-Mouse-680 (LI-COR, 926-68070) diluted 1:800 both in Odyssey blocking buffer+0.05% Tween 20 and were incubated for 1 hour at room temperature. The plates were washed 3× with 150 uL PBS+[…]. Plates were imaged dry on a Li—COR Odyssey CLX plate reader.
(§4) The phospho-ERK (Thr202/Tyr204) signal was normalized to the GAPDH signal for each well and percent of DMSO control values were calculated. IC50 values were generated using a 4-parameter fit of the dose response curve.

[2] = test system: NCI-H460 (Q61H) cells, phospho-ERK; assay: as above; format: cell-based; conditions: Homo sapiens, 3 hours
Experimental: as §1, §2, §3, §4

[3] = test system: NCI-H727 (G12V) cells, phospho-ERK; assay: as above; format: cell-based; conditions: Homo sapiens, 3 hours
Experimental: as §1, §2, §3, §4

MKN1 cells, pERK = assay: Inhibition of KRas phosphorylation of ERK (Cisbio HTRF Advanced pERK assay); format: cell-based; conditions: Homo sapiens, MKN-1, 3 h, read-out: Inhibition (HTRF IC50 nM) of KRas-mediated Phosphorylation of ERK, MKN1
How it was run: (§5)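 Homogeneous time-resolved fluorescence quantified phospho-ERK in lysates of cells exposed 3 h to compound (10 uM top, 3-fold serial, 0.8% DMSO).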

PSN1 cells, pERK = assay: as above; format: cell-based; conditions: Homo sapiens, PSN1, 3 h, read-out: Inhibition (HTRF IC50 nM) of KRas-mediated Phosphorylation of ERK, PSN1
How it was run: as §5

T2 sequence (P01116 1-169 isoform P01116-2 G12R): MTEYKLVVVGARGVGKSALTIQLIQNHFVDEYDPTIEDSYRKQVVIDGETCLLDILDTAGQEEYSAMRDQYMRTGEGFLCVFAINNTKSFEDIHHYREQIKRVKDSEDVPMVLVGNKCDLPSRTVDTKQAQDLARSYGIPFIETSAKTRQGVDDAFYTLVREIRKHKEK
T1 sequence (P01116 1-169 isoform P01116-2 G12D): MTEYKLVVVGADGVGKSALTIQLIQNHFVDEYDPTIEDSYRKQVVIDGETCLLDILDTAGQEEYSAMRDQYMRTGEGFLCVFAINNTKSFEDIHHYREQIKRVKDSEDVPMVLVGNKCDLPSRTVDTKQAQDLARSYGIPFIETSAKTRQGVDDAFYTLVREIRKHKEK

SMILES	IC50 (KRas^G12D) [nM]	IC50 (KRas^G12R) [nM]	IC50 (KRas^G12V) [nM]	IC50 [1] [nM]	IC50 [2] [nM]	IC50 [3] [nM]	IC50 (MKN1 cells, pERK) [nM]	IC50 (PSN1 cells, pERK) [nM]
CCc1c(F)ccc2cc(O)cc(N3CCc4c(nc(OC[C@@]56CCCN5C[C@H](F)C6)nc4N4CCCn5nc(N)cc5C4)C3)c12 [Example 18, 4-(4-(2-amino-7,8-dihydro-4H-pyrazolo[1,5-a][1,4]diazepin-5(6H)-yl)-2-(((2R,7aS)-2-fluorohexahydro-1H-pyrrolizin-7a-yl)methoxy)-5,6-dihydropyrido[3,4-d]pyrimidin-7(8H)-yl)-5-ethyl-6-fluoronaphthalen-2-ol]	≤ 2	≤ 2	≤ 2	182	317	503	22	≥ 10000
CCc1c(F)ccc2cc(O)cc(N3CCc4c(nc(OC[C@@]56CCCN5C[C@H](F)C6)nc4N4CCCC5(CC(=O)N5)C4)C3)c12 (stereo partly drawn) [Example 21, 6-(7-(8-ethyl-7-fluoro-3-hydroxynaphthalen-1-yl)-2-(((2R,7aS)-2-fluorohexahydro-1H-pyrrolizin-7a-yl)methoxy)-5,6,7,8-tetrahydropyrido[3,4-d]pyrimidin-4-yl)-1,6-diazaspiro[3.5]nonan-2-one]	≤ 2	≤ 2	≤ 2	204	202	466	9	646
CCc1c(F)ccc2cc(O)cc(N3CCc4c(nc(OC[C@@]56CCCN5C[C@H](F)C6)nc4N4CCCC(O)C4)C3)c12 (stereo partly drawn) [Example 27, 1-(7-(8-ethyl-7-fluoro-3-hydroxynaphthalen-1-yl)-2-(((2R,7aS)-2-fluorohexahydro-1H-pyrrolizin-7a-yl)methoxy)-5,6,7,8-tetrahydropyrido[3,4-d]pyrimidin-4-yl)piperidin-3-ol]	≤ 2	≤ 2	≤ 2	808	282	549	9	2720
CCc1c(F)ccc2cc(O)cc(N3CCc4c(nc(OC[C@@]56CCCN5C[C@H](F)C6)nc4N4CCCCC(S(C)(=O)=O)C4)C3)c12 (stereo partly drawn) [Example 28, 5-ethyl-6-fluoro-4-(2-(((2R,7aS)-2-fluorohexahydro-1H-pyrrolizin-7a-yl)methoxy)-4-(3-(methylsulfonyl)azepan-1-yl)-5,6-dihydropyrido[3,4-d]pyrimidin-7(8H)-yl)naphthalen-2-ol]	≤ 2	≤ 2	≤ 2	1010	494	987	36	≥ 10000
CCc1c(F)ccc2cc(O)cc(N3CCc4c(nc(OC[C@@]56CCCN5C[C@H](F)C6)nc4NCc4ccc5nncn5c4)C3)c12 [Example 31, 4-(4-(([1,2,4]triazolo[4,3-a]pyridin-6-ylmethyl)amino)-2-(((2R,7aS)-2-fluorohexahydro-1H-pyrrolizin-7a-yl)methoxy)-5,6-dihydropyrido[3,4-d]pyrimidin-7(8H)-yl)-5-ethyl-6-fluoronaphthalen-2-ol]	31	≤ 2	≤ 2	3540	> 10000	3320	637	≥ 10000
CCc1c(F)ccc2cc(O)cc(N3CCc4c(nc(OC[C@@]56CCCN5C[C@H](F)C6)nc4N4CCCC(O)(C(F)F)C4)C3)c12 (stereo partly drawn) [Example 32, 3-(difluoromethyl)-1-(7-(8-ethyl-7-fluoro-3-hydroxynaphthalen-1-yl)-2-(((2R,7aS)-2-fluorohexahydro-1H-pyrrolizin-7a-yl)methoxy)-5,6,7,8-tetrahydropyrido[3,4-d]pyrimidin-4-yl)piperidin-3-ol]	≤ 2	3	≤ 2	624	381	1090	31	1540
CCc1c(F)ccc2cc(O)cc(N3CCc4c(nc(OC[C@@]56CCCN5C[C@H](F)C6)nc4N4CCC(O)C(CO)CC4)C3)c12 (stereo partly drawn) [Example 33, 1-(7-(8-ethyl-7-fluoro-3-hydroxynaphthalen-1-yl)-2-(((2R,7aS)-2-fluorohexahydro-1H-pyrrolizin-7a-yl)methoxy)-5,6,7,8-tetrahydropyrido[3,4-d]pyrimidin-4-yl)-5-(hydroxymethyl)azepan-4-ol]	5	≤ 2	≤ 2	1360	398	1860	11	≥ 10000
CCc1c(F)ccc2cc(O)cc(N3CCc4c(nc(OC[C@@]56CCCN5C[C@H](F)C6)nc4N4CC5CC(O)CC4C5)C3)c12 (stereo partly drawn) [Example 35, 6-(7-(8-ethyl-7-fluoro-3-hydroxynaphthalen-1-yl)-2-(((2R,7aS)-2-fluorohexahydro-1H-pyrrolizin-7a-yl)methoxy)-5,6,7,8-tetrahydropyrido[3,4-d]pyrimidin-4-yl)-6-azabicyclo[3.2.1]octan-3-ol]	7	≤ 2	52	2360	1430	1620	159	5720
CCc1c(F)ccc2cc(O)cc(N3CCc4c(nc(OC[C@@]56CCCN5C[C@H](F)C6)nc4N4CCCCCC(S(C)(=O)=O)C4)C3)c12 (stereo partly drawn) [Example 36, 5-ethyl-6-fluoro-4-(2-(((2R,7aS)-2-fluorotetrahydro-1H-pyrrolizin-7a(5H)-yl)methoxy)-4-(3-(methylsulfonyl)azocan-1-yl)-5,8-dihydropyrido[3,4-d]pyrimidin-7(6H)-yl)naphthalen-2-ol]	5	5	≤ 2	1760	731	1730	37	≥ 10000
CCc1c(F)ccc2cc(O)cc(N3CCc4c(nc(OC[C@@]56CCCN5C[C@H](F)C6)nc4N4CCCC(n5cccn5)C4)C3)c12 (stereo partly drawn) [Example 67, 4-(4-(3-(1H-pyrazol-1-yl)piperidin-1-yl)-2-(((2R,7aS)-2-fluorohexahydro-1H-pyrrolizin-7a-yl)methoxy)-5,6-dihydropyrido[3,4-d]pyrimidin-7(8H)-yl)-5-ethyl-6-fluoronaphthalen-2-ol]	11	≤ 2	7	1570	225	876	112	≥ 10000

From patent US12421253B2 (Mirati Therapeutics, Inc., priority 2020, dated 2025)
